# Patent US20260042764A1, “COMPOSITIONS AND METHODS FOR INHIBITION OF KRAS” (TheRas, Inc., priority 2022, published 2026)
# Like-named read-outs stand apart in the source and are kept apart here.
# Key:
# [1] = system: HCT116 cells (KRAS G13D); experiment: Cell-based pERK HTRF assay in HCT116 cells (Biological Example 5)
# Procedure: (§1) Biological Example 5: Cell-based PERK HTRF assay in AsPC-1, SW1900, HPAC, Capan-2, RKN, H358, HCT116, KP-2, H1573, A549, MKN1, and HT1080 cells
# (§2) The inhibition of ERK phosphorylation, as measured using the HTRF Advanced Phospho-ERK 1/2 (Thr202/Tyr204) Detection Assay kit (Perkin Elmer), was used to determine the effectiveness of test compounds in disrupting KRAS-driven protein/effector signaling in cells.
# (§3) On day 1, cells were seeded into 96-well plates at 2.5×10^4 cells/well in 100 μL of complete growth media supplemented with 10% fetal bovine serum (FBS) and incubated at 37° C., in the presence of 5% CO2.
# (§4) On day 2, cells were treated with compounds diluted in DMSO at 0.25% final DMSO concentration. Compounds were dosed in a 9-point concentration curve with three-fold dilution between concentrations. Cells were incubated in the presence of compound for two hours at 37° C. Following this treatment period, cells were harvested by aspirating the media, adding 40 μL of kit-supplied 1x lysis buffer per well, and shaking for 30 minutes at 250 rpm at room temperature.
# (§5) Following cell lysis, samples were homogenized by pipetting up and down twenty times and 16 μL of cell lysate per well was transferred from the 96-well cell culture plate to two wells of a 384-well detection plate. A complete detection buffer was prepared by diluting D2 and Eu Cryptate antibodies 1:20 in kit-provided detection solution, 4 μL of complete detection buffer was then added to each well with lysate. Plates were incubated with gentle rocking for 24 hours at 4° C.
# (§6) Following this incubation period, plates were centrifuged at 500×g for one minute and analyzed on a CLARIOstar plate reader. Data was imported into Microsoft Excel and the signal from the 665 nm channel was divided by the signal from the 620 nm channel. % pERK was calculated as: […]
# (§7) Data was imported to the Prism software package (Graphpad) and EC50 values were calculated using the log (inhibitor) vs, response—variable slopc (Four parameters) model.
# [2] = system: KP-2 cells (KRAS G12R); experiment: Cell-based pERK HTRF assay in KP-2 cells (Biological Example 5); conditions: KP-2 (KRAS G12R) cells
# Procedure: as §1, §2, §3, §4, §5, §6, §7
# [3] = system: H1573 cells (KRAS G12A); experiment: Cell-based pERK HTRF assay in H1573 cells (Biological Example 5)
# Procedure: as §1, §2, §3, §4, §5, §6, §7
# [4] = system: HT1080 cells (NRAS); experiment: Cell-based pERK HTRF assay in HT1080 cells (Biological Example 5)
# Procedure: as §1, §2, §3, §4, §5, §6, §7
# [5] = system: H1573 cells (KRAS G12A); experiment: 3D Cell viability assay in H1573 cells (Biological Example 6); format: cell-based; conditions: H1573 (KRAS G12A) spheroids, 72 hours
# Procedure: (§8) Biological Example 6: 3D Cell viability assay in AsPC-1, SW1900, HPAC, Capan-2, RKN, H358, HCT116, KP-2, H1573, A549, MKN1, and HT1080 cells
# (§9) The inhibition of cellular viability as a result of test compound treatment in a spheroid assay was measured using the CellTiter-Glow 3D Cell Viability Assay (Promega).
# (§10) On Day 1, 1000 cells per well were seeded in 150 μL of complete growth media supplemented with 10% fetal bovine serum (FBS) and incubated at 37° C., in the presence of 5% CO2 in 96-well ultra-low attachment microplates (Corning) for 48 hours undisturbed to allow spheroids to form.
# (§11) Following spheroid formation, cells were treated with compounds diluted in DMSO at 0.25% final DMSO concentration. Compounds were dosed in a 9-point concentration curve with three-fold dilution between concentrations. Cells were incubated in the presence of compound for 72 hours at 37° C., in the presence of 5% CO2.
# (§12) Following this incubation period, the kit-provided CTG reagent was allowed to equilibrate for 30 minutes at room temperature, 150 μL of equilibrated CTG reagent was added to each well, and the plate was sealed before shaking at 250 rpm for 10 minutes at room temperature to lyse the cells, 150 μL of lysate per well was transferred to a 96-well plate and luminescence was read on a CLARIOstar plate reader.
# (§13) Data was imported into the Prism software package (Graphpad) and EC50 values were calculated using the log (inhibitor) vs, response—variable slope (Four parameters) model.
# [6] = system: A549 cells (KRAS G12S); experiment: 3D Cell viability assay in A549 cells (Biological Example 6); format: cell-based; conditions: A549 (KRAS G12S) spheroids, 72 hours
# Procedure: as §8, §9, §10, §11, §12, §13
# [7] = system: KP-2 cells (KRAS G12R); experiment: 3D Cell viability assay in KP-2 cells (Biological Example 6); format: cell-based; conditions: KP-2 (KRAS G12R) spheroids, 72 hours
# Procedure: as §8, §9, §10, §11, §12, §13
Structure (SMILES),"IC50 ([1]; Homo sapiens, HCT-116)",IC50 [2],"IC50 ([3]; Homo sapiens, NCI-H1573)","IC50 ([4]; Homo sapiens, HT-1080)","IC50 ([5]; Homo sapiens, NCI-H1573)",IC50 ([6]; Homo sapiens),IC50 [7],IC50 [1],IC50 [3],IC50 [4],IC50 [5],IC50 [6]
"CCN(c1nc(OC[C@@]23CCCN2C[C@H](F)C3)nc2c(F)c(-c3ccc(F)c4sc(N)c(C#N)c34)c(C(F)(F)F)cc12)[C@H]1C[C@H](C)N(C(=O)[C@@H]2CC2(F)F)C1 (atropisomer, axis not shown) [Compound 751]",≤ 100 nM,–,–,–,–,–,–,–,–,–,–,–
"CC(=O)N1CC[C@@H](N(C)c2nc(OC[C@@]34CCCN3C[C@H](F)C4)nc3c(F)c(-c4ccc(F)c5sc(N)c(C#N)c45)c(C(F)(F)F)cc23)[C@H]1C (single isomer, unassigned) [Compound 193]",≤ 100 nM,≤ 100 nM,≤ 100 nM,> 1000 nM,≤ 100 nM,≤ 100 nM,–,–,–,–,–,–
"N#Cc1c(N)sc2c(F)ccc(-c3c(C(F)(F)F)cc4c(N5CCOCC5)nc(OC[C@@]56CCCN5C[C@H](F)C6)nc4c3F)c12 (single isomer, unassigned) [Compound 198]",≤ 100 nM,–,≤ 100 nM,> 1000 nM,≤ 100 nM,≤ 100 nM,–,–,–,–,–,–
"N#Cc1c(N)sc2c(F)ccc(-c3c(C(F)(F)F)cc4c(N5CC6CC(C5)O6)nc(OC[C@@]56CCCN5C[C@H](F)C6)nc4c3F)c12 (single isomer, unassigned) [Compound 275]",≤ 100 nM,100 to 1000 nM,≤ 100 nM,> 1000 nM,≤ 100 nM,≤ 100 nM,≤ 100 nM,–,–,–,–,–
"CN(c1nc(OC[C@@]23CCCN2C[C@H](F)C3)nc2c(F)c(-c3ccc(F)c4sc(N)c(C#N)c34)c(C(F)(F)F)cc12)[C@H]1C[C@@H](O)C1 [Compound 19, 2-amino-7-fluoro-4-((S)-8-fluoro-2-(((2R,7aS)-2-fluorotetrahydro-1H-pyrrolizin-7a(5H)-yl)methoxy)-4-(((1s,3R)-3-hydroxycyclobutyl)(methyl)amino)-6-(trifluoromethyl)quinazolin-7-yl)benzo[b]thiophene-3-carbonitrile]",–,–,–,–,–,–,–,≤ 100 nM,≤ 100 nM,> 1000 nM,≤ 100 nM,100 to 1000 nM
N#Cc1c(N)sc2c(F)ccc(-c3c(C(F)(F)F)cc4c(N5CC6CC5CO6)nc(OC[C@@]56CCCN5C[C@H](F)C6)nc4c3F)c12 (stereo partly shown) [Compound 147],–,–,–,–,≤ 100 nM,≤ 100 nM,–,–,–,–,–,–
N#Cc1c(N)sc2c(F)ccc(-c3c(C(F)(F)F)cc4c(N5CCCOCC5)nc(OC[C@@]56CCCN5C[C@H](F)C6)nc4c3F)c12 [Compound 232],≤ 100 nM,–,≤ 100 nM,> 1000 nM,≤ 100 nM,≤ 100 nM,–,–,–,–,–,–
N#Cc1c(N)sc2c(F)ccc(-c3c(C(F)(F)F)cc4c(N5CCC[C@@H](O)C5)nc(OC[C@@]56CCCN5C[C@H](F)C6)nc4c3F)c12 [Compound 234],≤ 100 nM,–,≤ 100 nM,> 1000 nM,≤ 100 nM,≤ 100 nM,–,–,–,–,–,–
C[C@@H]1[C@H](N(C)c2nc(OC[C@@]34CCCN3C[C@H](F)C4)nc3c(F)c(-c4ccc(F)c5sc(N)c(C#N)c45)c(C(F)(F)F)cc23)CCN1C(=O)C1CC1 [Compound 258],≤ 100 nM,–,≤ 100 nM,> 1000 nM,≤ 100 nM,≤ 100 nM,–,–,–,–,–,–
CCC(=O)N1CC[C@@H](N(C)c2nc(OC[C@@]34CCCN3C[C@H](F)C4)nc3c(F)c(-c4ccc(F)c5sc(N)c(C#N)c45)c(C(F)(F)F)cc23)[C@H]1C [Compound 260],≤ 100 nM,–,≤ 100 nM,> 1000 nM,≤ 100 nM,≤ 100 nM,–,–,–,–,–,–
CCN(c1nc(OC[C@@]23CCCN2C[C@H](F)C3)nc2c(F)c(-c3ccc(F)c4sc(N)c(C#N)c34)c(C(F)(F)F)cc12)[C@H]1CCN(C(C)=O)C1 [Compound 262],≤ 100 nM,≤ 100 nM,≤ 100 nM,> 1000 nM,≤ 100 nM,≤ 100 nM,100 to 1000 nM,–,–,–,–,–
CCN(c1nc(OC[C@@]23CCCN2C[C@H](F)C3)nc2c(F)c(-c3ccc(F)c4sc(N)c(C#N)c34)c(C(F)(F)F)cc12)[C@@H]1CCN(C(C)=O)C1 [Compound 268],≤ 100 nM,100 to 1000 nM,≤ 100 nM,> 1000 nM,≤ 100 nM,≤ 100 nM,100 to 1000 nM,–,–,–,–,–
CCN(c1nc(OC[C@@]23CCCN2C[C@H](F)C3)nc2c(F)c(-c3ccc(F)c4sc(N)c(C#N)c34)c(Cl)cc12)[C@@H]1CCN(C(C)=O)[C@@H]1C [Compound 323],≤ 100 nM,–,≤ 100 nM,> 1000 nM,≤ 100 nM,≤ 100 nM,–,–,–,–,–,–
CCN(c1nc(OC[C@@]23CCCN2C[C@H](F)C3)nc2c(F)c(-c3ccc(F)c4sc(N)c(C#N)c34)c(C(F)(F)F)cc12)[C@H]1CCN(C(=O)C(C)C)C1 [Compound 332],≤ 100 nM,≤ 100 nM,≤ 100 nM,> 1000 nM,≤ 100 nM,≤ 100 nM,≤ 100 nM,–,–,–,–,–
CCN(c1nc(OC[C@@]23CCCN2C[C@H](F)C3)nc2c(F)c(-c3ccc(F)c4sc(N)c(C#N)c34)c(Cl)cc12)[C@@H]1CCN(C(=O)C2CC2)[C@@H]1C [Compound 337],≤ 100 nM,–,≤ 100 nM,> 1000 nM,≤ 100 nM,≤ 100 nM,–,–,–,–,–,–
CN(Cc1cccnc1N)c1nc(OC[C@@]23CCCN2C[C@H](F)C3)nc2c(F)c(-c3ccc(F)c4sc(N)c(C#N)c34)c(C(F)(F)F)cc12 [Compound 390],–,–,–,> 1000 nM,–,–,–,–,–,–,–,–
CC(=O)N1CC[C@@H](N(C)c2nc(OC[C@@]34CCCN3C[C@H](F)C4)nc3c(F)c(-c4ccc(F)c5sc(N)c(C#N)c45)c(Cl)cc23)[C@H]1C [Compound 398],≤ 100 nM,–,≤ 100 nM,> 1000 nM,≤ 100 nM,≤ 100 nM,–,–,–,–,–,–
CCN(c1nc(OC[C@@]23CCCN2C[C@H](F)C3)nc2c(F)c(-c3ccc(F)c4sc(N)c(C#N)c34)c(C(F)(F)F)cc12)[C@H]1C[C@H](C)N(C(C)=O)C1 [Compound 463],–,–,–,> 1000 nM,–,–,–,–,–,–,–,–
CCN(c1nc(OCC23CCCN2CC(F)C3)nc2c(F)c(-c3ccc(F)c4sc(N)c(C#N)c34)c(C(F)(F)F)cc12)C1CC(C)N(C(=O)C2CC2(F)F)C1 (stereo not shown) [Compound 732],–,–,–,–,–,–,–,≤ 100 nM,–,–,–,–
